PMC5640650, “NatD promotes lung cancer progression by preventing histone H4 serine phosphorylation to activate Slug expression” (Nature Communications, 2017)

Experiments:
[1] = test system: Slug promoter; assay: ChIP assay on the Slug promoter, H1299 cells; assay type: cell-based, human; conditions: vs Scr
Source text: Fig. 6 Nt-acetylation of histone H4 antagonizes phosphorylation of histone H4 serine 1 to regulate Slug expression. a Western blot analysis of indicated histone H4 modifications in Scr and NatD-KD H1299 cells. Histone H4 served as a loading control. b ChIP analysis of the enrichment of indicated histone H4 modifications on the Slug promoter in Scr and NatD-KD H1299 cells. IgG served as a negative control. Results are shown as mean ± s.d. from three independent experiments; two-tailed Student’s t-test, *P < 0.05, **P < 0.01 compared with the Scr control. c ChIP analysis of the enrichment of H3K4me3 and H3K27me3 on the Slug promoter in Scr and NatD-KD H1299 cells. IgG served as a negative control. Results are shown as mean ± s.d. from three independent experiments; two-tailed Student’s t-test, **P < 0.01 compared with the Scr control. d Western blot analysis of indicated proteins from H1299 cells overexpressing NatDΔ or wild-type NatD. Histone H4 served as a loading control. e ChIP analysis of the enrichment of Nt-ac-H4 and H4S1ph on Slug promoter in H1299 cells overexpressing NatDΔ or wild-type NatD. IgG served as a negative control. Results are shown as mean ± s.d. from three independent experiments; two-tailed Student’s t-test, *P < 0.05, **P < 0.01 compared with the wild-type control
Fig. 7 Downregulation of Nt-acetylation of histone H4 facilitates nuclear accumulation of CK2α and its binding to histone H4 in lung cancer cells. a Representative confocal scanning images of CK2α localization in Scr and H1299 cells (left panel). The staining intensity of CK2α was quantified by software ImageJ from NIH (right diagram). Scale bars, 5 μm. […] Equal peptide biotinylated on C terminus is shown by dot blot analysis with streptavidin (middle panel). […] IgG served as a negative control. Results are shown as mean ± s.d. from three independent experiments; two-tailed Student’s t-test, **P < 0.01 compared with the indicated control. g Quantitative real-time PCR analysis of mRNA levels of CK2α and Slug normalized to GAPDH in Scr and NatD-KD H1299 cells in the absence or presence of siRNA to CK2α. NC, siRNA mimics negative control. Data are mean ± s.d. of three independent experiments; Student’s t-test, *P < 0.05, **P < 0.01 compared with the indicated control. h Western blot analysis of indicated proteins from Scr and NatD-KD H1299 cells in the absence or presence of siRNA to CK2α.
ChIP assays were performed with H1299 cells in accordance with standard protocols. Normal rabbit IgG served as the control. ChIP samples were analyzed by quantitative real-time PCR using the FastStart Universal SYBR Green Master (Roche). A standard curve was prepared for each set of primers using serial titration of the input DNA. The percentage of ChIP DNA was calculated relative to the input DNA from primer-specific standard curves using the Rotor-Gene 6000 Series Software 1.7. The primer sequences for ChIP are listed in Supplementary Table 4. Antibodies used were: H4S1ph (Abcam; ab14723), H4K5ac (Millipore; CS204381), H4R3me2a (Active Motif; 39705), H4R3me2s (Abcam; ab5823), CK2α (Abcam; ab70774), H3K4me3 (Abcam; ab8580), and H3K27me3 (Abcam; ab6002).

[2] = test system: A549 cells; assay: Orthotopic implantation in nude mice, A549 cells; assay type: in vivo, human; conditions: pleural cavity, 21 days, n = 6, vs Scr
Protocol: All animal care and handling procedures were performed in accordance with the National Institutes of Health Guide for the Care and Use of Laboratory Animals, and were approved by the Institutional Review Board of Nanjing University (Nanjing, China). Female SCID mice and C57BL/6 mice (6–8 week old) were purchased from the Model Animal Research Center of Nanjing University (Nanjing, China), and were maintained under specific pathogen-free conditions at Nanjing University. The sample size was chosen with adequate power on the basis of the literature and our previous experience[46] and for each experiment it is indicated in the figure legend. […] Lung nodules and progression were monitored and quantified using the bioluminescence system (Caliper IVIS Lumina XR) or by counting under a dissecting microscope. […] Mice were killed at day 28 or day 30 to collect lungs, and lung nodules in serial sections were quantified microscopically. […] Lung nodules and progression were monitored and quantified using the bioluminescence system (Caliper IVIS Lumina XR). Mice were killed at day 14 or day 21 to collect lungs, and lung nodules in serial sections were quantified microscopically. […]
Supplementary Figure 9. […] (right) Relative BLI signals of lung tumors of corresponding mice (n = 6 for each group) recorded on day 3 and day 21. […]

Substance: NatD-KD2: Human NatD shRNA KD2: 5′-GGTTGAATGTCTCCATTGA-3′, lentiviral (shRNA lentiviral)
- enrichment of CK2α on Slug promoter [1]: significantly increased
- enrichment of H3K4me3 on Slug promoter [1]: significantly reduced
- enrichment of H3K27me3 on Slug promoter [1]: increased
- enrichment of H4R3me2a and H4K5ac on Slug promoter [1]: significantly reduced
- enrichment of H4R3me2s on Slug promoter [1]: unchanged
- enrichment of H4S1ph on Slug promoter [1]: significantly increased
- enrichment of Nt-ac-H4 on Slug promoter [1]: significantly reduced
- migration and invasion, orthotopic model [2]: significantly reduced
